Test results: ChEMBL document CHEMBL1201862, “PubChem BioAssay data set” (2004)
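Five concentrations, 48 hours, 96-well plates. At the GI50, growth is halved.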 Active and inactive are the calls of the source. Cut-off read from the data, not from the text of the source: active = GI50 up to about 1.1 µM and inactive = higher.

Tests used:
Test in all cases: inhibition of tumour cell growth, NCI panel, 48 h
MDA-MB-231 = system: MDA-MB-231
HT-29 = system: HT-29
HCC 2998 = system: HCC 2998
MCF7 = system: MCF7
COLO 205 = system: COLO 205
T47D = system: T47D
SNB-19 = system: SNB-19
Hs-578T = system: Hs-578T
NCI-H226 = system: NCI-H226
ACHN = system: ACHN
UO-31 = system: UO-31
BT-549 = system: BT-549
UACC-257 = system: UACC-257
LOX IMVI = system: LOX IMVI
MDA-N = system: MDA-N
NCI-H23 = system: NCI-H23
IGROV-1 = system: IGROV-1
M14 = system: M14
KM12 = system: KM12
OVCAR-3 = system: OVCAR-3

| SMILES | GI50 (MDA-MB-231) | GI50 (HT-29) | GI50 (HCC 2998) | GI50 (MCF7) | GI50 (COLO 205) | GI50 (T47D) | GI50 (SNB-19) | GI50 (Hs-578T) | GI50 (NCI-H226) | GI50 (ACHN) | GI50 (UO-31) | GI50 (BT-549) | GI50 (UACC-257) | GI50 (LOX IMVI) | GI50 (MDA-N) | GI50 (NCI-H23) | GI50 (IGROV-1) | GI50 (M14) | GI50 (KM12) | GI50 (OVCAR-3) |
| --- | --- | --- | --- | --- | --- | --- | --- | --- | --- | --- | --- | --- | --- | --- | --- | --- | --- | --- | --- | --- |
| C=C1CC(COc2ccc3c(C)c(C)c(=O)oc3c2C)(c2ccccc2)OC1=O (stereo not given) | 2.72 µM (inactive) | 1.53 µM (inactive) | 2.48 µM (inactive) | 1.42 µM (inactive) | 1.6 µM (inactive) | 2.07 µM (inactive) | 13.5 µM (inactive) | 4.26 µM (inactive) | 2.27 µM (inactive) | 3.51 µM (inactive) | 2.77 µM (inactive) | 1.63 µM (inactive) | 0.531 µM (active) | 1 µM (active) | 1.87 µM (inactive) | 2.04 µM (inactive) | 1.73 µM (inactive) | 1.57 µM (inactive) | 2.86 µM (inactive) | 2.88 µM (inactive) |
| [O-][S+]1SC(=S)C2C=CC=CC21 (stereo not given) | > 100 µM (inactive) | 45.3 µM (inactive) | > 100 µM (inactive) | 76.9 µM (inactive) | > 100 µM (inactive) | > 100 µM (inactive) | 48.4 µM (inactive) | 84.3 µM (inactive) | 59.6 µM (inactive) | > 100 µM (inactive) | 36.8 µM (inactive) | > 100 µM (inactive) | 75.5 µM (inactive) | 34.7 µM (inactive) | 40.8 µM (inactive) | > 100 µM (inactive) | 49.1 µM (inactive) | 23.2 µM (inactive) | > 100 µM (inactive) | > 100 µM (inactive) |
| CC1=CC[C@H](C(C)C)C(C(O)[C@@H](C)O[Si](c2ccccc2)(c2ccccc2)C(C)(C)C)C1=O (stereo not given in full) | 15.5 µM (inactive) | 11.9 µM (inactive) | 12.7 µM (inactive) | 15.8 µM (inactive) | 17.2 µM (inactive) | 13.2 µM (inactive) | 17.3 µM (inactive) | 28 µM (inactive) | 20 µM (inactive) | 15.6 µM (inactive) | 15.2 µM (inactive) | 18.9 µM (inactive) | 12.1 µM (inactive) | 21.8 µM (inactive) | 21.2 µM (inactive) | 16.6 µM (inactive) | 24.2 µM (inactive) | 15.3 µM (inactive) | 18.5 µM (inactive) | 17 µM (inactive) |
| COc1cc(C2c3cc4c(cc3OC(N3CCNCC3)C2C)OCO4)cc(OC)c1OC (stereo not given) | 0.403 µM (active) | 0.387 µM (active) | 2.26 µM (inactive) | 0.385 µM (active) | 0.416 µM (active) | 0.979 µM (active) | 0.912 µM (active) | 0.17 µM (active) | 1.83 µM (inactive) | 1.75 µM (inactive) | 1.69 µM (inactive) | 0.579 µM (active) | 3.75 µM (inactive) | 0.871 µM (active) | 0.253 µM (active) | 1.09 µM (active) | 1.17 µM (inactive) | 0.873 µM (active) | 0.441 µM (active) | 0.204 µM (active) |
| Clc1ccc(C2NN=C3c4ccccc4OCC32)cc1 (stereo not given) | 2.39 µM (inactive) | 3.13 µM (inactive) | 2.62 µM (inactive) | 3.68 µM (inactive) | 2.96 µM (inactive) | 5.83 µM (inactive) | 5.42 µM (inactive) | 3.2 µM (inactive) | 2.92 µM (inactive) | 14.9 µM (inactive) | 7.16 µM (inactive) | 13.5 µM (inactive) | 9.46 µM (inactive) | 8.02 µM (inactive) | 0.83 µM (active) | 4.39 µM (inactive) | 3.2 µM (inactive) | 2.84 µM (inactive) | 3.64 µM (inactive) | 5.16 µM (inactive) |
| C/C(=N\O)c1ccc(Nc2nc3ccccc3c3occc23)cc1 | 2.76 µM (inactive) | 1.15 µM (inactive) | 4.1 µM (inactive) | 3.42 µM (inactive) | 4.66 µM (inactive) | 5.45 µM (inactive) | 16.1 µM (inactive) | 9.18 µM (inactive) | 2.33 µM (inactive) | 9.82 µM (inactive) | 15.9 µM (inactive) | 18.3 µM (inactive) | 5.12 µM (inactive) | 4.23 µM (inactive) | 11.8 µM (inactive) | 15.6 µM (inactive) | 7.01 µM (inactive) | 4.86 µM (inactive) | 3.77 µM (inactive) | 12.4 µM (inactive) |
| O=C1CSC(c2cc3cc(Br)ccc3nc2Cl)N1c1ccc(Cl)cc1 (stereo not given) | 33.1 µM (inactive) | 32.9 µM (inactive) | 19.2 µM (inactive) | 17.9 µM (inactive) | 17.9 µM (inactive) | 21 µM (inactive) | 42.7 µM (inactive) | 35.9 µM (inactive) | 39.2 µM (inactive) | 13.5 µM (inactive) | 32.3 µM (inactive) | 26.8 µM (inactive) | 14.8 µM (inactive) | 16.1 µM (inactive) | 27.4 µM (inactive) | 31.3 µM (inactive) | 16.8 µM (inactive) | 21.1 µM (inactive) | 13 µM (inactive) | 16.7 µM (inactive) |
| O=C1C=CC2(O[C@H](C3CCCCC3)[C@@H](C3CCCCC3)O2)C(SC(=O)c2ccccc2)C1 (stereo not given in full) | 1.39 µM (inactive) | 1.36 µM (inactive) | 1.25 µM (inactive) | 1.48 µM (inactive) | 5.87 µM (inactive) | 0.975 µM (active) | 1.44 µM (inactive) | 1.92 µM (inactive) | 0.82 µM (active) | 1.94 µM (inactive) | 1.55 µM (inactive) | 3.1 µM (inactive) | 7.05 µM (inactive) | 1.41 µM (inactive) | 1.78 µM (inactive) | 2.47 µM (inactive) | 1.75 µM (inactive) | 2.14 µM (inactive) | 6.98 µM (inactive) | 0.891 µM (active) |
| Cc1ccc(N2C(=O)C(O)=C(C(=O)C(C)(C)C)C2c2ccc([N+](=O)[O-])cc2)cc1 (stereo not given) | 18.9 µM (inactive) | 17.6 µM (inactive) | 17.7 µM (inactive) | 17.7 µM (inactive) | 15.7 µM (inactive) | 18.8 µM (inactive) | 19.4 µM (inactive) | 16.9 µM (inactive) | 19.1 µM (inactive) | 16.6 µM (inactive) | 29.6 µM (inactive) | 11.1 µM (inactive) | 15.8 µM (inactive) | 14.9 µM (inactive) | 26 µM (inactive) | 15.4 µM (inactive) | 11.5 µM (inactive) | 18.2 µM (inactive) | 16.7 µM (inactive) | 19.6 µM (inactive) |
| N#Cc1c(N)nc2[nH]nc(N)c2c1-c1ccc(Cl)cc1 | 2.65 µM (inactive) | 7.62 µM (inactive) | 10 µM (inactive) | 3.03 µM (inactive) | 1.48 µM (inactive) | 1.47 µM (inactive) | 29.2 µM (inactive) | 2.5 µM (inactive) | 5.41 µM (inactive) | 2.49 µM (inactive) | 2.42 µM (inactive) | 2.73 µM (inactive) | 11.9 µM (inactive) | 2.83 µM (inactive) | 4.22 µM (inactive) | 3.76 µM (inactive) | 1.84 µM (inactive) | 3.33 µM (inactive) | 4.12 µM (inactive) | 2.34 µM (inactive) |
| O=[N+]([O-])c1ccc2nc(Cl)n[n+]([O-])c2c1 | 11.7 µM (inactive) | 11.7 µM (inactive) | 16.3 µM (inactive) | 5.52 µM (inactive) | 9.04 µM (inactive) | 16.8 µM (inactive) | 25.5 µM (inactive) | 37 µM (inactive) | 19.6 µM (inactive) | 14 µM (inactive) | 17 µM (inactive) | 16.2 µM (inactive) | 15.4 µM (inactive) | 1.8 µM (inactive) | 11.6 µM (inactive) | 15.3 µM (inactive) | 10.3 µM (inactive) | 14.3 µM (inactive) | 23.2 µM (inactive) | 7.43 µM (inactive) |
| O=C(O)C1CC(c2ccccc2)=NN1c1ccccc1 (stereo not given) | > 100 µM (inactive) | 34.2 µM (inactive) | 24.1 µM (inactive) | 48 µM (inactive) | 50.9 µM (inactive) | 52 µM (inactive) | > 100 µM (inactive) | 25.4 µM (inactive) | 36.8 µM (inactive) | 91.6 µM (inactive) | 39.9 µM (inactive) | 66.5 µM (inactive) | 51.9 µM (inactive) | 41.9 µM (inactive) | 99.5 µM (inactive) | 52.6 µM (inactive) | > 100 µM (inactive) | 75 µM (inactive) | 42.9 µM (inactive) | 42 µM (inactive) |
| Cc1c(S(=O)(=O)O)ccc(/N=N/c2c(O)c(C(=O)O)cc3ccccc23)c1Cl | > 49.8 µM (inactive) | > 100 µM (inactive) | > 100 µM (inactive) | > 100 µM (inactive) | > 100 µM (inactive) | > 100 µM (inactive) | > 100 µM (inactive) | > 62.1 µM (inactive) | > 100 µM (inactive) | > 100 µM (inactive) | > 100 µM (inactive) | > 100 µM (inactive) | > 100 µM (inactive) | > 100 µM (inactive) | > 100 µM (inactive) | > 100 µM (inactive) | > 100 µM (inactive) | > 100 µM (inactive) | > 100 µM (inactive) | > 100 µM (inactive) |
| CNC(=O)Nc1ccccc1 | > 100 µM (inactive) | > 100 µM (inactive) | > 100 µM (inactive) | > 100 µM (inactive) | > 100 µM (inactive) | > 100 µM (inactive) | > 100 µM (inactive) | > 100 µM (inactive) | > 100 µM (inactive) | > 100 µM (inactive) | > 100 µM (inactive) | > 100 µM (inactive) | > 100 µM (inactive) | > 100 µM (inactive) | > 100 µM (inactive) | > 100 µM (inactive) | > 100 µM (inactive) | > 100 µM (inactive) | > 100 µM (inactive) | > 100 µM (inactive) |
